In ChEMBL document CHEMBL3822429, “Identification of novel EZH2 inhibitors through pharmacophore-based virtual screening and biological assays” (Bioorg Med Chem Lett, 2016):

Columns and labels:
[1] = target: T1, Histone-lysine N-methyltransferase EZH2 (Homo sapiens, UniProt Q15910); experiment: Inhibition of PRC2 EZH2 sub unit (unknown origin) assessed as inhibition of SAM-mediated methyl transfer process at 50 uM preincubated for 15 mins followed by addition of H3K27me and [3H]SAM as substrate measured after 90 mins by radioactive methylation assay
Target sequence in this assay (Q15910 whole entry, looked up): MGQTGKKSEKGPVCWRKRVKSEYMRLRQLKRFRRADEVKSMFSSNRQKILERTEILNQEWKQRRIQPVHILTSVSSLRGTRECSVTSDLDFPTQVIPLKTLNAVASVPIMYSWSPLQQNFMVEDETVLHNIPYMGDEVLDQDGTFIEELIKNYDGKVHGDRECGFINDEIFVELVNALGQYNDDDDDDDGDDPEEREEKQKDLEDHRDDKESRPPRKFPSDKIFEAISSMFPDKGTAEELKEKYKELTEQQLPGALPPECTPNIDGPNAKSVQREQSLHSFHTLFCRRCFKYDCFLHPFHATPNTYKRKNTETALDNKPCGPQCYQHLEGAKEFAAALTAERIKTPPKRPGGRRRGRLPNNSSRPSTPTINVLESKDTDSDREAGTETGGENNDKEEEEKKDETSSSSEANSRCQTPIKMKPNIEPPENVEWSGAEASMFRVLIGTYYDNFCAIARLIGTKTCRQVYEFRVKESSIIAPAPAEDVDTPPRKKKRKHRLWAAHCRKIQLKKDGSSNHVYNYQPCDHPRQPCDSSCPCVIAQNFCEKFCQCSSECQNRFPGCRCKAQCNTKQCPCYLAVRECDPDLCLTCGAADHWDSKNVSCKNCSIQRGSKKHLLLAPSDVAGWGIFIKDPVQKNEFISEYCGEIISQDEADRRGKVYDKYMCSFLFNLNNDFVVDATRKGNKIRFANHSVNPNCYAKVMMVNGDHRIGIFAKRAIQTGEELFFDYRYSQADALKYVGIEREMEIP

[2] = target: DNA (cytosine-5)-methyltransferase 1 (Homo sapiens) (UniProt P26358); experiment: Inhibition of human DNMT1 assessed as DNA methylation at 50 uM preincubated for 15 mins followed by addition of poly(dI-dC) and [3H]SAM as substrate measured after 2 hrs by radioactive methylation assay
[3] = target: T1, Histone-lysine N-methyltransferase EZH2; experiment: Inhibition of PRC2 EZH2 sub unit (unknown origin) assessed as inhibition of SAM-mediated methyl transfer process preincubated for 15 mins followed by addition of H3K27me and [3H]SAM as substrate measured after 90 mins by radioactive methylation assay
Target sequence in this assay (Q15910 whole entry): as the sequence (Q15910 whole entry, looked up) above

DB = experiment: Antiproliferative activity against human DB cells expressing EZH2 mutant assessed as growth inhibition measured after 72 hrs by AlamaBlue assay
[4] = Antiproliferative activity against human Toledo cells expressing wild-type EZH2 assessed as growth inhibition measured after 72 hrs by AlamaBlue assay

Sequence of DNA (cytosine-5)-methyltransferase 1 (Homo sapiens) (P26358 whole entry): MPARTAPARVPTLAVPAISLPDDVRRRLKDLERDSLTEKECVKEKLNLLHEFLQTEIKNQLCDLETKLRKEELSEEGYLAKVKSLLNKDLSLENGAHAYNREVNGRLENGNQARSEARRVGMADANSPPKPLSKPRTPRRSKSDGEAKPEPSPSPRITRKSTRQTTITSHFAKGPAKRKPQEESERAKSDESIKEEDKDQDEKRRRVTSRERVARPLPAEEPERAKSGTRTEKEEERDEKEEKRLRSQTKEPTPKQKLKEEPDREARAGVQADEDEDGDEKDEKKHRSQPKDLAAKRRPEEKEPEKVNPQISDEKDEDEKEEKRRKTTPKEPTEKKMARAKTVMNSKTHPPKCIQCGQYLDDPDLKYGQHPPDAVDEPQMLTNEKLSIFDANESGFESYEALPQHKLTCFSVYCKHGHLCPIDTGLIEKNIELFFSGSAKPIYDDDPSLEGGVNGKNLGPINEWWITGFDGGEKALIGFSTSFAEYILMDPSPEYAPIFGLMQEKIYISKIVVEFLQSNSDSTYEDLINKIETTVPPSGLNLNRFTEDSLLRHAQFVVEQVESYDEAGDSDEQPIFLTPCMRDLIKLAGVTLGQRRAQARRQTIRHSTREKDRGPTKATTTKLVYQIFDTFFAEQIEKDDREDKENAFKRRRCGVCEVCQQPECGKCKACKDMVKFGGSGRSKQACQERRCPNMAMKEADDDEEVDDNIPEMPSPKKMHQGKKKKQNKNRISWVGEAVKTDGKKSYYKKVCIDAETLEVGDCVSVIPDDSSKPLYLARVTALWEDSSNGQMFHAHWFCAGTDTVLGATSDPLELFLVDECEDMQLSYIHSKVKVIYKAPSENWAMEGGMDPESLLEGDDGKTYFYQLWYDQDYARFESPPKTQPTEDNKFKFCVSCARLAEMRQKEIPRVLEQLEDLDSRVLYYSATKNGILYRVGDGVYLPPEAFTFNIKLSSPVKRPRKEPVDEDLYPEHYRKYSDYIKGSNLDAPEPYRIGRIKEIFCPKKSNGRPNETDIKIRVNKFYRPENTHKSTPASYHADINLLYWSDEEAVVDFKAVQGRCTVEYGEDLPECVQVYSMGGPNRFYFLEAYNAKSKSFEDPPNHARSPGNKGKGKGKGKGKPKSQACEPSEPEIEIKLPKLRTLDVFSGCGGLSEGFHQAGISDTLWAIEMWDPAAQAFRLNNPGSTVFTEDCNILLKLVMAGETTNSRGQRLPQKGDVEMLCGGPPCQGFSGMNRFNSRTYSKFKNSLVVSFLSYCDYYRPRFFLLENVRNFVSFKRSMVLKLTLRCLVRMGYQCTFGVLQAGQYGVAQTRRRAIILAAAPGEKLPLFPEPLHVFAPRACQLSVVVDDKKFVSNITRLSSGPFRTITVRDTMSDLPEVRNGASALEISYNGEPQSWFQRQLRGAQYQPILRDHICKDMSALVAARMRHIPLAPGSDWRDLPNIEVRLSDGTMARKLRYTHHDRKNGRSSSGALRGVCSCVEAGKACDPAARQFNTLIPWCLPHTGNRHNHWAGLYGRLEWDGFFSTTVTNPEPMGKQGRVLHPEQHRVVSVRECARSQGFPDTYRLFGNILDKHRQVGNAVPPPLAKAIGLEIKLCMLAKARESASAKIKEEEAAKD

SMILES: COc1ccc(CN2CCN(c3cc(C)c(C#N)c4nc5ccccc5n34)CC2)cc1
- inhibition [1]: 0%

SMILES: COc1ccc2nc(Nc3nc(O)cc(CSc4nnnn4-c4ccccc4)n3)nc(C)c2c1
- inhibition [1]: 72%
- inhibition [2]: 0%
- IC50 [3]: 22.6 µM
- IC50 (DB): 32.8 µM
- IC50 [4]: 24.1 µM

SMILES: Cc1cc(O)nc(Nc2ccccc2)n1
- inhibition [1]: -2%

SMILES: COc1ccc2nc(Nc3nc(O)cc(CSc4nnc(C)s4)n3)nc(C)c2c1
- inhibition [1]: -9%

SMILES: OCCNCC(O)Cn1c2ccc(Br)cc2c2cc(Br)ccc21 (configuration not stated)
- inhibition [1]: -9%

SMILES: Cc1ccc2c(c1)C1CN(C)CCC1N2C(=O)c1ccc2ccccc2c1 (configuration not stated)
- inhibition [1]: 0%

SMILES: COc1ccc(-n2c(SCC(=O)c3ccc(Cl)cc3)nc3ccccc3c2=O)cc1
- inhibition [1]: 5%

SMILES: Cc1cc(C)nc(Nc2n[nH]c(-c3ccccc3Cl)n2)n1
- inhibition [1]: 17%

SMILES: O=c1c(-c2ccccc2)c(O)c2c(n1-c1ccccc1)CCCC2
- inhibition [1]: -2%

SMILES: Cc1ccc2nc(N=C(N)N)nc(C)c2c1
- inhibition [1]: 3%

SMILES: NS(=O)(=O)c1ccc(NC(=O)CN2C(=O)c3cccc4cccc(c34)C2=O)cc1
- inhibition [1]: 14%

SMILES: COc1ccc(C(=O)C(OC(=O)c2ccc(C)c(NC(C)=O)c2)c2ccccc2)cc1 (configuration not stated)
- inhibition [1]: 9%

SMILES: NC(=O)CCN1CCN(CCOC2Cc3cc(Cl)ccc3Sc3ccccc32)CC1 (configuration not stated)
- inhibition [1]: -6%

SMILES: O=C(/C(=C(/[O-])c1ccc(Cl)cc1)[n+]1ccc2ccccc2c1)c1ccccc1
- inhibition [1]: 2%

SMILES: CC1=CC(C)(C)Oc2c1c(=O)n(-c1ccccc1)c(=S)n2-c1ccc(C)cc1
- inhibition [1]: 4%

SMILES: CC12CCCc3c(-c4ncn[nH]4)c(-c4ccccc4)c(=O)n(c31)-c1ccccc12 (configuration not stated)
- inhibition [1]: 1%

SMILES: O=C(c1cnn2c1NC(c1ccc(Br)cc1)CC2C(F)(F)F)N1CCN2CCCC2C1 (configuration not stated)
- inhibition [1]: -2%

SMILES: NC(=O)c1ccc(N=C2C(=O)Nc3ccc([N+](=O)[O-])cc32)cc1
- inhibition [1]: 6%

SMILES: O=C(NC1CCSC1=O)c1cccc(C(=O)NC2CCSC2=O)c1 (configuration not stated)
- inhibition [1]: 6%

SMILES: Cc1ccc2c(c1)C1CN(C)CCC1N2C(=O)Cc1ccc(Cl)cc1 (configuration not stated)
- inhibition [1]: 4%

SMILES: CC(=O)Nc1cc(C(=O)OC(C(=O)c2ccccc2)c2ccccc2)ccc1C (configuration not stated)
- inhibition [1]: 2%

SMILES: Cc1ccc2nc(Nc3nc(O)cc(CSc4nnnn4-c4ccccc4)n3)nc(C)c2c1
- inhibition [1]: 28%

SMILES: Cn1c(=O)cc2c3c(c(N4CCOCC4)ccc31)C(=O)c1ccccc1-2
- inhibition [1]: 9%

SMILES: CCOC(=O)C[n+]1ccc2c([nH]c3ccccc32)c1C
- inhibition [1]: 7%

SMILES: CCN(CC)c1ccc2cc(-c3nnc(Nc4cc(OC)ccc4OC)o3)c(=O)oc2c1
- inhibition [1]: 25%

SMILES: Cc1ccc(C(=O)CSc2nc3sc4c(c3c(=O)n2-c2ccccc2)CCCC4)s1
- inhibition [1]: -1%

SMILES: Cc1cc(C)nc(NC2=NCCS2)n1
- inhibition [1]: 16%

SMILES: O=C1c2ccccc2NC(c2c[nH]nc2-c2ccccc2)N1O (configuration not stated)
- inhibition [1]: 9%

SMILES: CCOc1ccc(NC(=N)Nc2nc(O)cc(CSc3nnnn3-c3ccccc3)n2)cc1
- inhibition [1]: -1%

SMILES: O=C1CC(=C2c3ccccc3-c3ccccc32)C(=O)N1CCN1CCN(c2cccc(Cl)c2)CC1
- inhibition [1]: 29%

SMILES: Cn1c(-c2ccc(C=O)o2)nc2c3ccccc3c3ccccc3c21
- inhibition [1]: 52%

SMILES: CN1c2ccccc2Oc2nnc(N3CCN(C(c4ccccc4)c4ccccc4)CC3)cc21
- inhibition [1]: -7%

SMILES: O=C1c2ccccc2-c2cccc3c2c1cc1ccccc13
- inhibition [1]: 34%

SMILES: Cc1ccc2c(C)nc(Nc3nc(O)cc(CSc4nnnn4-c4ccccc4)n3)nc2c1
- inhibition [1]: 19%

SMILES: N/N=C1/CCCc2c1[nH]c1ccc(F)cc21
- inhibition [1]: 18%

SMILES: Cc1ccc(-n2nc3cc(C)c(NC(=O)NC(=O)Cc4ccccc4)cc3n2)cc1
- inhibition [1]: 0%

SMILES: N#C/C(=C/c1ccc(-c2ccc(C(N)=O)cc2)o1)c1nc2ccccc2[nH]1
- inhibition [1]: 41%

SMILES: O=C1C(Cc2ccccc2)=C(O)c2cccc3c2C1=C(O)CC3
- inhibition [1]: 11%
